According to EP0618807B1, “A STABILIZED PHARMACEUTICAL FORMULATION COMPRISING GROWTH HORMONE AND HISTIDINE” (NOVO NORDISK A/S, priority 1991, dated 1993):

Columns and labels:
[1] = Stability statements of the general description (deamidation, stability in solution); assay type: physicochemical; settings: addition of the solvent to the hGH preparation
[2] = Example 2: deamidation at 25°C with histidine or histidine derivatives, desamido content by IE-HPLC; assay type: physicochemical; settings: compared to phosphate at pH 6.5
Method: The rate of deamidation was examined at 25°C for hGH preparations comprising 6 IU hGH at pH 6.5 and at pH 7.3 in 5 mM, 10 mM and 100mM His buffer as compared to 8 mM phosphate buffer at the same pH. Furthermore, the histidine derivatives His-Gly, His-Ala, His-Leu, His-Lys, His-Phe, His-Ser, Histidine methyl ester, histidinol, imidazole, imidazole-4-acetic acid and histamine were tested.
The hGH preparations were prepared by dissolving 20 mg hGH in 10 ml of histidine buffer of the desired strength prepared by dissolving 7.8 mg, 15.5 mg and 155.2 mg, respectively, of histidine in 10 ml deionized water containing 0.9% (v/v) of benzyl alcohol and adding 0.1 N hydrochloric acid to achieve the stated pH.
The hGH formulations stated in Table 2 below were stored at 25°C and analyzed for their desamido content after 14 and 30 days by IE-HPLC.

SMILES	reduction in the deamidation [1]	effect on de-amidation / stabilization (in words) [2]
CO [5% methanol, methanol]	more than 20%	
OCc1ccccc1 [benzyl alcohol]		no influence
Cc1cccc(O)c1 [m-cresol]		no influence
CCO [10% ethanol, ethanol]	more than 20%	
